Data reported in PubChem BioAssay AID504927 (NMMLSC, 2011).
“And” between values parts separate entries of the source, which are not always exact repeats. Identical values can stand only once. The source made the active and inactive calls.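 Rule for the calls: active = EC50 below 10 microM from an accepted curve fit, fit percent over 10, EC50 error under a fifth; inactive = the rest.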

Experiments:
[1] = inhibitors of superoxide in aged yeast, dose response, additional hits, confirmation (AID 504927); settings: S. cerevisiae aged culture, superoxide DHE fluorescence, 7 d; at 33.1 µM (top of the series)
[2] = tested on: S. cerevisiae aged culture, superoxide DHE fluorescence, 7 d; test: as above

| SMILES | percent response (superoxide), lower = inhibition [1] | EC50 [2] |
| --- | --- | --- |
| Cc1cc2nc3ccc(N(C)C)cc3nc2cc1N | 82.4% (inactive) |  |
| COc1ccc2nc3ccccc3nc2c1N |  | 1130 nM |
| C=C1C(O)[C@@H]2O[C@]3(CC[C@H](/C=C/C(C)[C@@H]4CC(C)=CC5(O[C@H](C[C@@](C)(O)C(=O)O)CCC5O)O4)O3)CC[C@H]2O[C@@H]1C(O)CC(C)[C@H]1OC2(CCCCO2)CCC1C (stereo partly drawn) | 84% (inactive) |  |
| C/C(=N\Nc1ncnc2sc(C)c(C)c12)c1ccccn1 |  | 10400 nM (inactive) |
| CC(C)OC(=O)c1ccc2nc3ccccc3nc2c1 |  | 12600 nM (inactive) |
| COc1ccc2c(c1)c1nnc(SC)nc1n2C | 54.2% (inactive) |  |
| N#CC(c1nc2ccccc2nc1N1CCCC1)S(=O)(=O)c1ccccc1 (stereo not drawn) | 128% (inactive) |  |
| COc1ccc2cc(C3CC(c4ccco4)=NN3S(=O)(=O)c3ccccc3)c(Cl)nc2c1 (stereo not drawn) | 110% (inactive) |  |
| NC(=O)CSc1nnc(-c2ccc([N+](=O)[O-])cc2)o1 | 99.1% (inactive) |  |
| c1ccc2[nH]c3cc4ncnc4cc3nc2c1 |  | 130 nM |
| COc1ccc2nc3cccc(OC)c3nc2c1 | 79.2% (inactive) |  |
| C#C[C@]1(O)[C@H](O)CC2C3CC[C@H]4C[C@@H](O)CC[C@]4(C)C3CC[C@@]21C (stereo partly drawn) | 117% (inactive) |  |
| Cc1ccccc1NC(=O)c1cccc2nc3ccccc3nc12 | 104% (inactive) |  |
| CCN(CC)C(=O)CSc1nnc(-c2cccc(OC)c2)o1 | 108% (inactive) |  |
| CCN(CC)C(=O)c1cccc2nc3ccccc3nc12 |  | 1520 nM |
| FC(F)(F)c1nc2cc3nc4ccccc4[nH]c3cc2n1 | 72.2% (inactive) |  |
| Cc1cc(C)c2[nH]c3nc(SCC(=O)O)nnc3c2c1 | 111% (inactive) |  |
| C[C@]12CCC3C(CC[C@H]4C[C@H](O)CC[C@]34C)C1C[C@@H](CCCCl)[C@@H]2O (stereo partly drawn) |  | 530 nM |
| O=C(c1cccc2nc3ccccc3nc12)N1CCOCC1 |  | 1750 nM |
| Cc1ccc(-c2nn(C(C)(C)C)c3ncnc(N)c23)cc1 | 44.3% (inactive) |  |
| O=C(/C=C/c1ccccc1)NC(=S)NNC(=O)Cc1cccs1 | 78.9% (inactive) |  |
| CC(C)CSc1nnc2c3ccccc3n(C)c2n1 | 105% (inactive) |  |
| CCCCCNC(=O)C(=O)C1C(=O)Nc2ccccc21 (stereo not drawn) | 86.1% (inactive) |  |
| COc1ccc2nc3ccccc3[n+]([O-])c2c1 | 107% (inactive) |  |
| CC(=O)O[C@H]1CCC2C3CC[C@H]4[C@@H](O)[C@H](O)CC[C@]4(C)C3CC[C@@]21C (stereo partly drawn) | 93.3% (inactive) |  |

| SMILES | percent response (superoxide), lower = inhibition [1] | EC50 [2] |
| --- | --- | --- |
| C[n+]1c2ccccc2nc2ccc(NCCO)cc21 |  | 4520 nM |
| [O-][n+]1c2ccccc2[n+]([O-])c2cc(O)ccc21 |  | 1110 nM |
| CCc1nc(NC(C)(C)C)c2cnn(-c3ccccc3)c2n1 | 119% (inactive) |  |
| O=C(/C=C/c1cccs1)NC(=S)NNC(=O)Cc1cccs1 | 132% (inactive) |  |
| CC(=O)[C@@]1(O)CCC2C3CC[C@H]4C[C@@H](O)CC[C@]4(C)C3CC[C@@]21C (stereo partly drawn) | 107% (inactive) |  |
| O=C(CN1CCN(c2ccccn2)CC1)Nc1ccccc1F | 108% (inactive) |  |
| O=C(Nc1ccc2nc3ccccc3nc2c1)c1ccccc1 |  | 80 nM |
| Cc1cccc2nc3ccccc3nc12 |  | 2720 nM |
| COc1ccc2c3c(cccc13)N(C)N=C2C | 78.1% (inactive) |  |
| c1ccc2nc3ccccc3nc2c1 | 88.6% (inactive) |  |
| CC(C)(C)n1nc(-c2ccc(F)cc2)c2c(N)ncnc21 |  | 2440 nM |
| C#CCSc1nnc(-c2ccc([N+](=O)[O-])cc2)o1 |  | 5160 nM |
| CNC(=O)c1cccc2nc3ccccc3nc12 | 52% (inactive) |  |
| O=C(OCc1c(F)cccc1Cl)c1cnc2ccccc2n1 |  | 5980 nM |
| CC(=O)Nc1ccc2nc3ccccc3nc2c1 |  | 170 nM |
| CSc1nnc2c3cc(F)ccc3n(C)c2n1 |  | 5860 nM |
| CNc1ccc2nc3ccccc3[n+](C)c2c1 |  | 2110 nM |
| O=C(O)c1cnc2ccccc2n1 |  | 13400 nM (inactive) |
| COc1ccc2nc3ccccc3nc2c1NC(=O)c1ccccc1Cl |  | 60 nM |
| OCC[n+]1c2ccccc2nc2ccc(N3CCOCC3)cc21 |  | 2610 nM |
| COC(=O)c1cccc2nc3c(C(C)O)cccc3nc12 (stereo not drawn) |  | 910 nM |
| O=C1c2c(O)ccc(O)c2C(=O)c2c(NCCNCCO)ccc(NCCNCCO)c21 |  | 6580 nM |
| C[C@]12CCC3C(CC[C@H]4C[C@H](O)CC[C@]34C)C1CCC2=O (stereo partly drawn) |  | 30 nM |
| CC(C)OC(=O)CSc1nnc(-c2ccc(Cl)cc2Cl)o1 | 128% (inactive) |  |
| CSc1nnc(-c2ccc([N+](=O)[O-])cc2)o1 |  | 13100 nM (inactive) |

| SMILES | percent response (superoxide), lower = inhibition [1] | EC50 [2] |
| --- | --- | --- |
| CCn1c2ccccc2c2n[nH]c(=S)nc21 | 94.7% (inactive) |  |
| O=C(Nc1cccc(Cl)c1)Nc1ccc2nccnc2c1 |  | 510 nM |
| CCC(=Nc1ccccc1O)C1=C(O)CC(c2ccccc2)CC1=O (stereo not drawn) | 87.9% (inactive) |  |
| Cn1c(=O)[nH]c2nncnc2c1=O |  | 3400 nM |
| C=CCSc1nnc(-c2ccc([N+](=O)[O-])cc2)o1 | 63.5% (inactive) |  |
| CC(C)(C)n1nc(-c2ccc(Cl)cc2)c2c(N)ncnc21 |  | 4230 nM |
| COc1cccc2nc3cc(C)c(C)cc3nc12 | 78.3% (inactive) |  |
| CN(C)CCNc1ncnc2c1cnn2-c1ccc(Cl)cc1 | 97.4% (inactive) |  |
| Cn1c(O)c(C(=Nc2ccc(F)cc2)c2ccccc2Cl)c(=O)n(C)c1=O | 113% (inactive) |  |
| Cc1cc(C)cc(NC(=O)CN2CCN(c3ccccn3)CC2)c1 | 95.7% (inactive) |  |
| O=c1[nH]c(O)c(C=Nc2ccc(F)c(Cl)c2)c(=O)[nH]1 | 97.1% (inactive) |  |
| Oc1cccc2nc3ccccc3nc12 | 129% (inactive) |  |
| C[C@]12CCC3C(CC[C@H]4C[C@@H](O)CC[C@]34C)C1CC[C@@H]2OC(=O)[C@H](N)CCCCN (stereo partly drawn) | 96.2% (inactive) |  |
| COc1ccc2nc3ccccc3nc2c1 |  | 370 nM and 850 nM |
| CCN(CC)c1ccc2nc3ccc(N)cc3[n+](-c3ccccc3)c2c1 |  | 2310 nM |
| C[C@@]12C(=O)OC(=O)[C@]1(C)C1CCC2O1 |  | 180 nM |
| N#CCc1nn(-c2ccccc2)c2ncnc(N)c12 | 95.5% (inactive) |  |
| CC(C)(C)Nc1ncnc2c1cnn2-c1ccccc1 | 110% (inactive) |  |
| C[C@]12CCC3C(CC[C@H]4C[C@@H](O)CC[C@]34C)[C@H]1CC[C@H]2O (stereo partly drawn) | 113% (inactive) |  |
| CCN(CC)C(=O)c1ccc2nc3ccccc3nc2c1 |  | 790 nM |
| O=C(Nc1ccc2nc3ccccc3nc2c1)c1ccc(Br)cc1 | 104% (inactive) |  |
| C=CCOn1c(=O)c(-c2cccs2)[n+]([O-])c2ccccc21 | 83.4% (inactive) |  |
| Nc1cc2nc3ccccc3nc2cc1N |  | 3500 nM |
